According to ChEMBL document CHEMBL4011594, “Discovery and optimization of 2-pyridinone aminal integrase strand transfer inhibitors for the treatment of HIV” (Bioorg Med Chem Lett, 2017):
Values after ≈ are worked out from the molar mass of the structure shown.

Key:
[1] = Plasma protein binding in Beagle dog; assay type: ADME, cell-free, Canis lupus familiaris; settings: read-out: PPB (converted)
[2] = Aqueous solubility of the compound at pH 2; assay type: physicochemical
[3] = Aqueous solubility of the compound at pH 7; assay type: physicochemical
[4] = Clearance in Beagle dog at 0.5 mg/kg, iv or 1 mg/kg, po; assay type: ADME, organism-based, Canis lupus familiaris; settings: in vivo
[5] = Volume of distribution in Beagle dog at 0.5 mg/kg, iv or 1 mg/kg, po; assay type: ADME, organism-based, Canis lupus familiaris; settings: in vivo
[6] = Half life in Beagle dog at 0.5 mg/kg, iv or 1 mg/kg, po; assay type: ADME, organism-based, Canis lupus familiaris; settings: in vivo
[7] = Oral bioavailability in Beagle dog at 1 mg/kg; assay type: ADME, organism-based, Canis lupus familiaris; settings: in vivo
[8] = Apparent permeability of the compound; assay type: physicochemical; settings: not told
[9] = tested on: Human immunodeficiency virus 1; assay: Inhibition of wild-type HIV-1 integrase strand transfer activity assessed as reduction in viral replication in presence of 10% normal human serum
[10] = tested on: Human immunodeficiency virus type 1 integrase (Human immunodeficiency virus 1), Q7ZJM1 [E92Q]; assay: Inhibition of HIV-1 integrase E92Q mutant strand transfer activity assessed as reduction in viral replication
[11] = tested on: Human immunodeficiency virus type 1 integrase (Human immunodeficiency virus 1), Q7ZJM1 [Y143R]; assay: Inhibition of HIV-1 integrase Y143R mutant strand transfer activity assessed as reduction in viral replication
[12] = tested on: Human immunodeficiency virus type 1 integrase (Human immunodeficiency virus 1), Q7ZJM1 [Q148R]; assay: Inhibition of HIV-1 integrase Q148R mutant strand transfer activity assessed as reduction in viral replication
[13] = tested on: Human immunodeficiency virus type 1 integrase (Human immunodeficiency virus 1), Q7ZJM1 [Q148K]; assay: Inhibition of HIV-1 integrase Q148K mutant strand transfer activity assessed as reduction in viral replication
[14] = tested on: Human immunodeficiency virus type 1 integrase (Human immunodeficiency virus 1), Q7ZJM1 [N155H]; assay: Inhibition of HIV-1 integrase N155H mutant strand transfer activity assessed as reduction viral replication
[15] = tested on: Human immunodeficiency virus type 1 integrase (Human immunodeficiency virus 1), Q7ZJM1 [G140S,Q148H]; assay: Inhibition of HIV-1 integrase G140S/Q148H double mutant strand transfer activity assessed as reduction in viral replication
[16] = tested on: Human immunodeficiency virus 1; assay: Inhibition of HIV-1 integrase strand transfer activity assessed as reduction in viral replication in presence of 50% normal human serum

SMILES | fraction unbound [1] | solubility [2] [µM] | solubility [3] [µM] | clearance [4] [mL/min/kg] | Vd [5] [L/kg] | half-life [6] [h] | bioavailability [7] [%] | Papp [8] [×10⁻⁶ cm/s] | IP [9] [nM] | IP [10] [nM] | IP [11] [nM] | IP [12] [nM] | IP [13] [nM] | IP [14] [nM] | IP [15] [nM] | IP [16] [nM]
N#Cc1cccc2c1[C@]1(CC2)NC(=O)c2c3c(c(O)c(=O)n21)C(=O)N(Cc1ccc(F)c(Cl)c1)CC3 | 0.028 | 8 (≈ 4.04 µg/mL) | 10 (≈ 5.05 µg/mL) | 2.4 | 0.9 | 10.6 | 40 | 7 | 4 | 18 | 4 | 7 | 9 | 13 | 18 | 18
O=C1c2c(c3n(c(=O)c2O)[C@@H](C2CC2)N(C2CC2)C3=O)CCN1Cc1ccc(F)c(Cl)c1 | 0.024 | 40 (≈ 18.3 µg/mL) | 34 (≈ 15.6 µg/mL) | 1.4 | 0.7 | 7.5 | 44 | – | 95 | 123 | 142 | 1010 | 820 | 271 | 1540 | 1730
O=C1N[C@]2(CC[C@H]3C[C@H]32)n2c1c1c(c(O)c2=O)C(=O)N(Cc2ccc(F)c(Cl)c2)CC1 | – | 30 to 50 (≈ 13.3 to 22.2 µg/mL) | 31 (≈ 13.8 µg/mL) | 0.12 | 0.1 | 13 | 15 | – | 30 | 210 | 28 | 107 | 450 | 84 | 491 | 206
O=C1NC(C2CCCC2)n2c1c1c(c(O)c2=O)C(=O)N(Cc2ccc(F)c(Cl)c2)CC1 (racemic) | – | 116 (≈ 51.7 µg/mL) | < 5 | – | – | – | – | – | > 10000 | – | – | – | – | – | – | > 1000
O=C1NC2(CCCC2)n2c1c1c(c(O)c2=O)C(=O)N(Cc2ccc(F)c(Cl)c2)CC1 | – | < 5 | 10 (≈ 4.32 µg/mL) | – | – | – | – | – | 100 | – | – | – | – | – | – | 1600
CO[C@H](C)CN1C(=O)c2c3c(c(O)c(=O)n2C12CCC1CC12)C(=O)N(Cc1ccc(F)c(Cl)c1)CC3 (some centres not stated) | – | 46 (≈ 23.7 µg/mL) | 26 (≈ 13.4 µg/mL) | – | – | – | – | – | 25 | – | – | – | – | – | – | 180
CCC(O)CN1C(=O)c2c3c(c(O)c(=O)n2C12CCC1CC12)C(=O)N(Cc1ccc(F)c(Cl)c1)CC3 (configuration not stated) | – | 69 (≈ 35.6 µg/mL) | 54 (≈ 27.9 µg/mL) | – | – | – | – | – | 15 | – | – | – | – | – | – | 120
O=C1c2c(c3n(c(=O)c2O)C2(CCC4CC42)N(CC2CCOCC2)C3=O)CCN1Cc1ccc(F)c(Cl)c1 (racemic) | – | 44 (≈ 23.8 µg/mL) | 14 (≈ 7.59 µg/mL) | – | – | – | – | – | 31 | – | – | – | – | – | – | 240
C[C@H](O)CN1C(=O)c2c3c(c(O)c(=O)n2[C@@]12CC[C@H]1C[C@H]12)C(=O)N(Cc1ccc(F)c(Cl)c1)CC3 | 0.025 | 125 (≈ 62.7 µg/mL) | 98 (≈ 49.2 µg/mL) | 2.9 | 0.5 | 6 | 42 | – | 8 | 10 | 11 | 10 | 10 | 11 | 27 | 44
CN1CC(=O)N(CCN2C(=O)c3c4c(c(O)c(=O)n3C23CCC2CC23)C(=O)N(Cc2ccc(F)c(Cl)c2)CC4)C1=O (configuration not stated) | – | 136 (≈ 79.4 µg/mL) | 56 (≈ 32.7 µg/mL) | – | – | – | – | – | 8 | – | – | – | – | – | – | 42
CN1C(=O)c2c3c(c(O)c(=O)n2C12CCC2)C(=O)N(Cc1ccc(F)c(Cl)c1)CC3 | – | < 5 | < 5 | – | – | – | – | – | 210 | – | – | – | – | – | – | 900
O=C1NC(C2CCC2)n2c1c1c(c(O)c2=O)C(=O)N(Cc2ccc(F)c(Cl)c2)CC1 (racemic) | – | 40 (≈ 17.3 µg/mL) | 31 (≈ 13.4 µg/mL) | – | – | – | – | – | 8340 | – | – | – | – | – | – | > 10000
COCC(O)CN1C(=O)c2c3c(c(O)c(=O)n2C12CCC1CC12)C(=O)N(Cc1ccc(F)c(Cl)c1)CC3 (configuration not stated) | – | 157 (≈ 83.5 µg/mL) | 123 (≈ 65.4 µg/mL) | – | – | – | – | – | 16 | – | – | – | – | – | – | 130
CN1C(=O)c2c3c(c(O)c(=O)n2C12CCCCCC2)C(=O)N(Cc1ccc(F)c(Cl)c1)CC3 | – | < 5 | < 5 | – | – | – | – | – | 1100 | – | – | – | – | – | – | 4800
O=C1c2c(c3n(c(=O)c2O)C2(CCC4CC42)N(CCN2CCCS2(=O)=O)C3=O)CCN1Cc1ccc(F)c(Cl)c1 (configuration not stated) | – | 11 (≈ 6.5 µg/mL) | < 4 | – | – | – | – | – | 17 | – | – | – | – | – | – | 170
N#Cc1cccc2c1[C@@]1(CC2)NC(=O)c2c3c(c(O)c(=O)n21)C(=O)N(Cc1ccc(F)c(Cl)c1)CC3 | – | 10 (≈ 5.05 µg/mL) | 17 (≈ 8.58 µg/mL) | – | – | – | – | – | 1300 | – | – | – | – | – | – | 4110
COc1cccc2c1[C@]1(CC2)NC(=O)c2c3c(c(O)c(=O)n21)C(=O)N(Cc1ccc(F)c(Cl)c1)CC3 | – | < 2 | 5 (≈ 2.55 µg/mL) | – | – | – | – | – | 4 | – | – | – | – | – | – | 22
O=C(CN1C(=O)c2c3c(c(O)c(=O)n2C12CCC1CC12)C(=O)N(Cc1ccc(F)c(Cl)c1)CC3)N1CCOCC1 (configuration not stated) | – | 151 (≈ 86.2 µg/mL) | 67 (≈ 38.3 µg/mL) | – | – | – | – | – | 18 | – | – | – | – | – | – | 120
CO[C@@H](C)CN1C(=O)c2c3c(c(O)c(=O)n2C12CCC1CC12)C(=O)N(Cc1ccc(F)c(Cl)c1)CC3 (some centres not stated) | – | 12 (≈ 6.19 µg/mL) | 23 (≈ 11.9 µg/mL) | – | – | – | – | – | 28 | – | – | – | – | – | – | 210
O=C1NC2(Cc3ccccc3C2)n2c1c1c(c(O)c2=O)C(=O)N(Cc2ccc(F)c(Cl)c2)CC1 | – | < 3 | < 3 | – | – | – | – | – | 620 | – | – | – | – | – | – | 1800
CN1CCN(CCN2C(=O)c3c4c(c(O)c(=O)n3C23CCC2CC23)C(=O)N(Cc2ccc(F)c(Cl)c2)CC4)S1(=O)=O (configuration not stated) | – | 18 (≈ 10.9 µg/mL) | 12 (≈ 7.27 µg/mL) | – | – | – | – | – | 13 | – | – | – | – | – | – | 65
Cc1ccc2c(c1)CCC21NC(=O)c2c3c(c(O)c(=O)n21)C(=O)N(Cc1ccc(F)c(Cl)c1)CC3 (racemic) | – | < 3 | < 3 | – | – | – | – | – | 59 | – | – | – | – | – | – | 240
O=C1c2c(c3n(c(=O)c2O)C2(CCC4CC42)N(CCN2C(=O)CCC2=O)C3=O)CCN1Cc1ccc(F)c(Cl)c1 (configuration not stated) | 0.058 | 89 (≈ 50.6 µg/mL) | 48 (≈ 27.3 µg/mL) | 7.3 | 2.1 | 6.6 | 4.5 to 5 | – | 7 | 7 | 11 | 7 | 7 | 8 | 23 | 46
